What all share (format): cell-based, human
Test [1] relates to MCF-7 cells. The test can be described thus: Dose-response of signal transduction modulators on E2-induced cell proliferation, 3H-thymidine incorporation (Example 2). The procedure: Dose-response of Signal Transduction Modulators on E2-Induced Cell Proliferation To determine the impact of two key signaling proteins, cAMP/PKA system and tyrosine kinase family member, c-Src kinase (p^src60) on estrogen-induced cell proliferation in human epithelial breast cancer cells, MCF-7 cells were cultured in growth DMEM medium supplemented with 10% fetal bovine serum (FBS). At 85% confluence, cells were sub-cultured in 5% FBS serum stripped medium, phenol red free for 24 hours prior to the treatment of the test chemical. […] Tamoxifen (TX) was used in parallel as positive control. Cell proliferation was measured using ^3H-thymidine incorporation. The study was done in triplicate and a control was used with solvent only. Control received solvent only at <0.1% ethanol.

Test [2] relates to MCF-7 cells. Description: Effect of FK or GM on TX efficacy against E2-induced cell proliferation, 3H-thymidine incorporation (Example 3). Background: Uptake of a labelled nucleoside into DNA is a usual measure of proliferation.
Description: In another experiment cells were treated with 10 nM E2 (=2.7 ng E2/ml) with three concentraion of GM (1, 5 and 10 ng/ml) 24 hours prior to cell proliferation assessment. Tamoxifen (TX) was used in parallel as positive control. Cell proliferation was measured using ^3H-thymidine incorporation. The study was done in triplicate and a control was used with solvent only. Control received solvent only at <0.1% ethanol.
Test [3] has as its system MCF-7 cells. Description: Cell growth without E2, 5 days, cell count using trypan blue exclusion (Examples 5-7). Conditions: mixtures with TX; conclusion from the Examples, FIGS. 6-9. Here is the method: MCF-7 cells were cultured in growth DMEM medium supplemented with 10% fetal bovine serum (FBS). At 85% confluence, cells were sub-cultured in 5% FBS serum stripped medium, phenol red free for 24 hours prior to the treatment of the test chemical. Cells were treated with and without a mixture of either 5 μM FK […] and 1 μM TX (=0.56 ug TX/ml) or a mixture of 1 μM TX (=0.56 ug TX/ml) and 1 μM FK. Cell growth was measured 5 days following treatment. Cell growth was determined by cell count using trypan blue exclusion. The study was done in duplicate and a control was used with solvent only. Control received solvent only at <0.1% ethanol.
MCF-7 cells were cultured in growth DMEM medium supplemented with 10% fetal bovine serum (FBS). At 85% confluence, cells were sub-cultured in 5% FBS serum stripped medium, phenol red free for 24 hours prior to the treatment of the test chemical. Cells were treated with and without a mixture of either 5 ng GM/ml and 5 μM TX (=2.8 ug TX/ml) or a mixture of 10 ng GM/ml and 5 μM TX (=2.8 ug TX/ml). Cell growth was measured 5 days following treatment. Cell growth was determined by cell count using trypan blue exclusion. […]
MCF-7 cells were cultured in growth DMEM medium supplemented with 10% fetal bovine serum (FBS). […] Cell growth was measured 5 days following treatment. Cell growth was determined by cell count using trypan blue exclusion. […]

The subject of test [4] is MCF-7 cells. Description: Dose-response of tamoxifen on E2-induced cell proliferation, 3H-thymidine incorporation (Example 1). The procedure:
Dose-Response of Tamoxifen on Estrogen (E2)-Induced Cell Proliferation MCF-7 cells were cultured in growth DMEM medium supplemented with 10% fetal bovine serum (FBS). […] […] Cell proliferation was measured using ^3H-thymidine incorporation. The study was done in triplicate and a control was used with solvent only. Control received solvent only at <0.1% ethanol.
In Table 1, percentage of control is calculated either based on the control (solvent only, ethanol 0.1%) or based on the E2 values which is between parenthesis.

The subject of test [5] is MCF-7 cells. Description: Time-course of E2-induced cell growth, cell count using trypan blue exclusion (Example 4). Conditions: TX 1 μM alone + E2 10 nM; calculated on control value, FIG. 4. The procedure: Effect of cAMP Inducer on Efficacy and Stability of Tamoxifen MCF-7 cells were cultured in growth DMEM medium supplemented with 10% fetal bovine serum (FBS). At 85% confluence, cells were sub-cultured in 5% FBS serum stripped medium, phenol red free for 24 hours prior to the treatment of the test chemical. Cells were treated with 10 nM E2 (=2.7 ng E2/ml) with and without a mixture of 1 μM FK and 1 μM TX. Cell growth was measured 1, 2 and 5 days following treatment. Cell growth was determined by cell count using trypan blue exclusion. The study was done in duplicate and a control was used with solvent only. Control received solvent only at <. 1% ethanol.

Where [6] appears, read: TX 5 μM + E2 10 nM, based on solvent control.
Where [7] appears, read: TX 5 μM + E2 10 nM, value in parenthesis, based on E2 value.
Setting [8] is: TX 10 μM + E2 10 nM, based on solvent control.

Each structure is given as a SMILES string.

Consider 4 molecules from US20030108622A1, “Cancer treatment composition and method using signal transduction modulators and natural plant essential oils as synergists for conventional treatments” (EcoSMART Technologies, Inc., priority 1998, published 2003).

For the molecule `C=C[C@@]1(C)CC(=O)[C@]2(O)[C@@]3(C)[C@@H](O)CCC(C)(C)[C@@H]3[C@H](O)[C@H](OC(C)=O)[C@@]2(C)O1` [FK, forskolin], the “% protection” value was 66% in test [1] (FK 1 μM in the presence of 10 nM E2), 78% in test [1] (FK 5 μM in the presence of 10 nM E2) and 86% in test [1] (FK 10 μM in the presence of 10 nM E2). In test [1] (Homo sapiens, MCF7, FK 1 μM in the presence of 10 nM E2, read-out: 3H-Thymidine incorporation/μg protein (% of control)), the activity at 1 µM was 34%. The activity at 5 µM in test [1] (Homo sapiens, MCF7, FK 5 μM in the presence of 10 nM E2, read-out: 3H-Thymidine incorporation/μg protein (% of control)) came to 22%. The activity at 10 µM in test [1] (Homo sapiens, MCF7, FK 10 μM in the presence of 10 nM E2, read-out: 3H-Thymidine incorporation/μg protein (% of control)) amounted to 14%.

For `COC1=C2C[C@@H](C)C[C@H](OC)[C@H](O)[C@@H](C)/C=C(\C)[C@H](OC(N)=O)[C@@H](OC)/C=C\C=C(/C)C(=O)NC(=CC1=O)C2=O` [GM, geldanamycin], the “3H-Thymidine incorporation/μg protein (% of control)” value in test [1] (GM 1 ng/ml in the presence of 10 nM E2) and in test [1] (GM 5 ng/ml in the presence of 10 nM E2) was “no effect” in each case. In addition, in test [1] (GM 10 ng/ml), the “inhibition of the E2-induced cell proliferation” value was “did not inhibit”. The “% protection” value in test [1] (GM 10 ng/ml in the presence of 10 nM E2) was 6%; in test [2] (Table 4: GM 1 ng/ml, E2 10 nM = 100) it was 0%; in test [2] (Table 4: GM 5 ng/ml, E2 10 nM = 100), 0%; in test [2] (Table 4: GM 10 ng/ml, E2 10 nM = 100), 10%. Further, the activity at 0.01 µg/mL in test [1] (Homo sapiens, MCF7, GM 10 ng/ml in the presence of 10 nM E2, read-out: 3H-Thymidine incorporation/μg protein (% of control)) was 94%; in test [2] (Homo sapiens, MCF7, Table 4: GM 10 ng/ml, E2 10 nM = 100, read-out: 3H-Thymidine incorporation/μg protein (% of control)), 90%. Also, the activity at 0.001 µg/mL in test [2] (Homo sapiens, MCF7, Table 4: GM 1 ng/ml, E2 10 nM = 100, read-out: 3H-Thymidine incorporation/μg protein (% of control)) stood at 100%. For the same molecule, the activity at 0.005 µg/mL in test [2] (Homo sapiens, MCF7, Table 4: GM 5 ng/ml, E2 10 nM = 100, read-out: 3H-Thymidine incorporation/μg protein (% of control)) turned out to be 100%.

As to `COc1cccc(-c2cc(=O)c3ccccc3o2)c1N` [PD98059], in test [3], the “synergy with the anticancer activity of tamoxifen in breast cancer cells” value was “synergize the anticancer activity of tamoxifen”.

As for `CC/C(=C(\c1ccccc1)c1ccc(OCCN(C)C)cc1)c1ccccc1` [TX, tamoxifen], the activity at 1 µM is 42% in test [4] (Homo sapiens, MCF7, TX 1 μM, without E2, based on solvent control) and 79% in test [1] (Homo sapiens, MCF7, TX 1 μM in the presence of 10 nM E2, read-out: 3H-Thymidine incorporation/μg protein (% of control)). In addition, the activity at 5 µM in test [4] (Homo sapiens, MCF7, TX 5 μM, without E2, based on solvent control) was determined as 36%; in test [1] (Homo sapiens, MCF7, TX 5 μM in the presence of 10 nM E2, read-out: 3H-Thymidine incorporation/μg protein (% of control)), 54%; in test [2] (Homo sapiens, MCF7, Table 4: 5 μM TX + E2, E2 10 nM = 100, read-out: 3H-Thymidine incorporation/μg protein (% of control)), 54%. The activity at 10 µM in test [4] (Homo sapiens, MCF7, TX 10 μM, without E2, based on solvent control) was determined as 33%; in test [1] (Homo sapiens, MCF7, TX 10 μM in the presence of 10 nM E2, read-out: 3H-Thymidine incorporation/μg protein (% of control)) it was 25%. The 3H-thymidine incorporation dpm in test [4] (TX 1 μM + E2 10 nM) is on record as 12336 dpm; in test [4] (TX 1 μM, without E2), 2586 dpm; in test [4] (TX 5 μM + E2 10 nM), 4007 dpm; in test [4] (TX 5 μM, without E2) it was 1848 dpm; in test [4] (TX 10 μM + E2 10 nM), 3239 dpm; in test [4] (TX 10 μM, without E2), 1545 dpm. The “3H-thymidine incorporation dpm/μg protein” value in test [4] (TX 1 μM + E2 10 nM) came to 379.6 dpm/μg protein; in test [4] (TX 1 μM, without E2), 129.3 dpm/μg protein; in test [4] (TX 5 μM + E2 10 nM), 260.2 dpm/μg protein; in test [4] (TX 5 μM, without E2), 112.0 dpm/μg protein; in test [4] (TX 10 μM + E2 10 nM), 118.5 dpm/μg protein; in test [4] (TX 10 μM, without E2), 99.8 dpm/μg protein. In addition, the “3H-thymidine incorporation % of control” value came out at 124% in test [4] (TX 1 μM + E2 10 nM, based on solvent control); 85% in test [4] (setting [6]); 39% in test [4] (setting [8]). Also, the “% protection (based on E2 value)” value in test [4] (TX 1 μM + E2 10 nM, value in parenthesis, based on E2 value) is “(21) %”; in test [4] (setting [7]), 47%; in test [4] (TX 10 μM + E2 10 nM, value in parenthesis, based on E2 value) it was 75%. Besides, the “% protection” value in test [4] (TX 1 μM, without E2) is recorded as 58%; in test [4] (setting [6]) it was 15%; in test [4] (TX 5 μM, without E2), 64%; in test [4] (setting [8]) it was 61%; in test [4] (TX 10 μM, without E2), 67%; in test [1] (TX 1 μM in the presence of 10 nM E2), 21%. In addition, the “% protection” value came out at 46% in test [1] (TX 5 μM in the presence of 10 nM E2), 75% in test [1] (TX 10 μM in the presence of 10 nM E2) and 46% in test [2] (Table 4: 5 μM TX + E2 (TX alone)). Besides, the “3H-thymidine incorporation % of control (based on E2 value)” value in test [4] (setting [7]) was 53%. Moreover, in test [4] (TX 1-10 μM, Table 1), the “antagonistic action against the E2-induced cell proliferation” value is listed as “dose-dependent”. Further, in test [4] (low concentrations 0.56 ug/ml to 2.8 ug/ml (=1 - 5 μM)), the “potency against the E2-induced cell proliferation” value is recorded as “potent”. In addition, in test [1] (1-10 μM, Table 2), the antiestrogenic action result is “dose-dependent”. The “protection against the biological activity of E2” value in test [2] (1 μM TX alone, FIG. 2) was ~25%. Moreover, in test [2] (5 μM TX alone, FIG. 2), the “protection against the E2-induced cancer cell growth” value is 45%. Further, the “time over which the E2 action is antagonized” value in test [5] is “up to 48 hr”.
